In patent publication US11058902B2, “Compositions and methods for treating disease associated with permeability of intestinal epithelium” (9 Meters Biopharma, Inc., priority 2017, dated 2021):
Like-named read-outs stand apart in the source and are kept apart here.

Tests used:
[1] = tested on: ischemic-injured porcine jejunum; experiment: Recovery of barrier function (transepithelial resistance, TER) in ischemic-injured porcine jejunum mucosa ex vivo in Ussing chambers; assay type: cell-based, Yorkshire-cross pigs; settings: fragment added together with larazotide
Text: Intestinal epithelial tight junction integrity is crucial to maintain an intact intestinal barrier against noxious luminal contents. […] Porcine mucosa injured by ischemia/reperfusion injury is abnormally permeable until interepithelial tight junctions have re-assembled.
(§1) Yorkshire-cross pigs 6-8-weeks-of-age were anesthetized, followed by midline laparotomy and creation of a series of 10 cm intestinal loops commencing proximal to the ileum by ligating the intestinal lumen. The local mesenteric vasculature was ligated to select treatment loops for 45-min, whereas other loops were left as non-ischemic controls. Loops were subsequently resected, and the mucosal tissues were stripped in oxygenated (95% O2/5% CO2) Ringers from the muscle layers in preparation for ex vivo incubation in Ussing chambers. Tissues were monitored by measuring transepithelial resistance (TER) for 240-min. At the end of a 240-min recovery period, tissues were taken for histology and immunofluorescence evaluation of tight junction proteins.

tight junction = experiment: Activity as tight junction regulators (larazotide fragments, alone or mixed with larazotide); settings: for activity as tight junction regulators: fragment alone
Text: In various embodiments, the methods of the invention comprise treating a subject with larazotide or derivative thereof. Larazotide is a peptide agent that promotes tight junction integrity in the gastrointestinal tract (GI). […] See US 2016/0022760, which is hereby incorporated by reference in its entirety. […] In accordance with this disclosure, it is believed that an aminopeptidase located within the brush borders of the lumen surface may create larazotide-derived fragments, including fragments missing N-terminal glycine residues.

occludin = settings: tissues treated with larazotide
Text: as §1

claudin 2 = settings: tissues treated with larazotide
Text: as §1

celiac disease symptoms = settings: clinical trials, cited from earlier work

With “VLVQPG [larazotide-derived fragment missing N-terminal glycine residues]” the “effect of larazotide in the presence of the fragment” value [1] was “blocked”, the “activity as tight junction regulators” value (tight junction) was “inactive” and the “activity of full length larazotide when mixed with the two fragments” value (tight junction) was “completely abolished”.
In the case of “Gly Gly Val Leu Val Gin Pro Gly [larazotide]”, the “localization of the tight junction sealing protein occludin” value (occludin) is listed as “increased localization”, the “pore (leak)-forming tight junction protein claudin 2” value (claudin 2) is listed as “reductions” and the “reducing celiac disease symptoms” value (celiac disease symptoms; higher doses (e.g., 1 mg and 2 mg doses)) is listed as “attenuation of activity, or no activity at all”. For the same substance, the “reducing celiac disease symptoms” value (celiac disease symptoms; lower doses (e.g., 0.5 mg dose)) was “benefit at reducing celiac disease symptoms”.
With “GVLVQPG [larazotide-derived fragment missing an N-terminal glycine residue]” the “effect of larazotide in the presence of the fragment” value [1] was “blocked”, the “activity as tight junction regulators” value (tight junction) was “inactive” and the “activity of full length larazotide when mixed with the two fragments” value (tight junction) was “completely abolished”.
